Measurements taken from US20140011977A1, “CHIMERIC MOLECULES TO MODULATE GENE EXPRESSION” (Cold Spring Harbor Laboratory, priority 2000, published 2014).

Experiments:
SMN1 pre-mRNA exon 7 = assay: S100 extract complementation in vitro splicing, SMN1 pre-mRNA; format: biochemical, human; conditions: S100 extract complemented with 4 pmol recombinant SR protein, 4 hours
Experimental: (§1) Finally, splicing of SNM1 and SMN2 pre-mRNAs in S100-complementation experiments was used to test the SR protein specificity of the ESEs. S100 extract is a post-nuclear, post-ribosomal fraction capable of supporting in vitro splicing only when complemented with one or more SR proteins. When the SMN pre-mRNAs were incubated in S100 extract alone, spliced products were barely detectable (FIG. 17b, lanes 5-8).
(§2) 5′ capped, T7 runoff transcripts from purified PCR products were uniformly labeled with [α-^32P] UTP, purified by denaturing PAGE, and spliced in HeLa cell nuclear or S100 extracts, as described. Briefly, 10 fmol of transcript was incubated in 12.5-μl standard splicing reactions containing 3 μl of nuclear extract or 2 μl of S100 extract complemented with 4 pmol of recombinant SC35 or SF2/ASF. The MgCl2 concentration was 2.4 mM for BRCA1 transcripts and 1.6 mM for SMN transcripts. After incubation at 30° C. for 4 hours, RNA was extracted and analyzed on 12% (BRCA1) or 8% (SMN) denaturing polyacrylamide gels, followed by autoradiography and phosphorimager analysis. Exon inclusion was calculated as a percentage of the total amount of spliced mRNAs, i.e., included mRNA×100/(included mRNA+skipped mRNA).

SMN2 pre-mRNA exon 7 = assay: S100 extract complementation in vitro splicing, SMN2 pre-mRNA; format: biochemical, human
Experimental: as §1, §2

β-globin pre-mRNA = assay: S100 extract complementation with β-globin pre-mRNA; format: biochemical; conditions: data not shown

Molecule | exon 7 inclusion, SMN1 pre-mRNA (SMN1 pre-mRNA exon 7) | exon 7 inclusion, SMN2 pre-mRNA (SMN2 pre-mRNA exon 7; S100 extract complemented with 4 pmol recombinant SR protein, 4 hours) | exon 7 inclusion, SMN2 context, high concentrations of SR protein (SMN2 pre-mRNA exon 7; S100 extract, high concentrations, data not shown) | complementation of S100 extract (β-globin pre-mRNA)
SF2/ASF: recombinant human SR protein SF2/ASF used to complement S100 extract | promoted exon 7 inclusion | much less efficiently | promoted significant inclusion | 
SC35: recombinant human SR protein SC35 used to complement S100 extract (protein, UniProt Q01130 2-221, looked up) Serine/arginine-rich splicing …: SYGRPPPDVEGMTSLKVDNLTYRTSPDTLRRVFEKYGRVGDVYIPRDRYTKESRGFAFVRFHDKRDAEDAMDAMDGAVLDGRELRVQMARYGRPPDSHHSRRGPPPRRYGGGGYGRRSRSPRRRRRSRSRSRSRSRSRSRSRYSRSKSRSRTRSRSRSTSKSRSARRSKSKSSSVSRSRSRSRSRSRSRSPPPVSKRESKSRSRSKSPPKSPEEEGAVSS | failed to drive exon 7 inclusion |  |  | efficiently complemented S100 extract
